This note sets out measurements from patent US20070270462A1, “8-hydroxyquinoline compounds for treating a polyglutamine (polyQ)-expansion disease” (priority 2005, published 2007).

The structures appear in SMILES notation.

Assay [1] has as its system R6/2 mice. Nature of the assay: Rotarod performance in R6/2 mice. The note with it: between ninth and eleventh weeks of age, oral CQ 30 mg/kg/day. In kind it is in vivo, mouse. The method, then:
A colony of transgenic mice strain R6/2 that is heterozygous for htt exon1 (containing 145 CAG repeats) was maintained, with founders originating and available from The Jackson Laboratory (Bar Harbor, Me., USA). Male transgenic R6/2 mice were bred with background strain (B6CBAFI/J) females. Genotyping was done according to Hockly et al, Brain Res Bull 61, 469-479, 2003. CQ in water was orally administered to mice at 30 mg/kg/day starting at 3 weeks of age and continued until the mice were deceased or sacrificed for tissues. Littermate R6/2 mice were gavaged with water vehicle alone. […] Blood glucose levels were determined after at least 8 hrs of fasting in 11-week old mice (n=6 for wild-type, n=4 for vehicle-treated R6/2, n=6 for CQ-treated R6/2 littermates) using a 2300 STAT Plus glucose analyzer (YSI, Yellowsonte, Ohio, USA). Fasting blood insulin levels in animals fasted for 8 hrs were measured using an Ultra Sensitive Rat Insulin ELISA Kit (Crystal Chem, Inc., Downers Grove, Ill., USA) according to manufacturer's instructions.
Rotarod performance (n≧6 for each treatment group) was assessed as described by Hockly et al., 2003 Supra with the modification that the SDI Rota-Rod (San Diego Instruments, San Diego, Calif.) was set to linearly increase in speed to 40 rpm in 4 min ramp time. […]
On the technique in general: The rotarod test checks motor coordination on a turning rod.

Assay [2] has as its system R6/2 mice. The assay is described as follows: Body weight of R6/2 mice. The class given is in vivo, mouse. The note with it: 10th and 11th weeks, oral CQ 30 mg/kg/day. The method, then:
A colony of transgenic mice strain R6/2 that is heterozygous for htt exon1 (containing 145 CAG repeats) was maintained, with founders originating and available from The Jackson Laboratory (Bar Harbor, Me., USA). Male transgenic R6/2 mice were bred with background strain (B6CBAFI/J) females. Genotyping was done according to Hockly et al, Brain Res Bull 61, 469-479, 2003. CQ in water was orally administered to mice at 30 mg/kg/day starting at 3 weeks of age and continued until the mice were deceased or sacrificed for tissues. Littermate R6/2 mice were gavaged with water vehicle alone. At the end of CQ treatment mice were anesthetized and transcardially perfused with PBS followed by 4% v/v paraformaldehyde. Blood glucose levels were determined after at least 8 hrs of fasting in 11-week old mice (n=6 for wild-type, n=4 for vehicle-treated R6/2, n=6 for CQ-treated R6/2 littermates) using a 2300 STAT Plus glucose analyzer (YSI, Yellowsonte, Ohio, USA). Fasting blood insulin levels in animals fasted for 8 hrs were measured using an Ultra Sensitive Rat Insulin ELISA Kit (Crystal Chem, Inc., Downers Grove, Ill., USA) according to manufacturer's instructions. […]

The subject of assay [3] is Htt exon1-Q103-egfp. Nature of the assay: Fluorescence microscopy of transiently transfected PC12 cells expressing Htt exon1-Q103-egfp. In kind it is cell-based. The note with it: CQ 4 μM, 48 hours post-transfection. The source says:
(§1) PolyQ-htt-GFP fusion constructs, in which the polyglutamine region is encoded by CAA and CAG-containing tandem repeats ([…]) [SEQ ID NO: 1], human polyglutaminen, were obtained from the Hereditary Disease Foundation, Santa Monica, Calif., USA. PC12 and HEK293 cells were maintained in MEM supplemented with 10% v/v FBS, switched to Opti-MEM without serum for 6 hrs during transfection using Lipofectamine 2000 (Invitrogen, Carlsbad, Calif., USA), and returned to serum-containing medium thereafter (up to 48 hours). […] Control cultures received equivalent amounts of DMSO-containing vehicle (<0.1% w/v DMSO, final concentration).
Concordant with this reduction in mutant protein expression, cell survival was improved by CQ in a dose dependent fashion with a half maximal effect at 1-2 μM (FIG. 2b). Cell death began to increase at 8 μM, likely due to dose-dependent toxic effects of CQ.

Assay [4] concerns Htt exon1-Q103-egfp. The assay is described as follows: Western blotting of cell extracts, Htt exon1-Q103-egfp expression. In kind it is cell-based.
Description: as §1
HEK293 or PC12 cells were lysed in PBS buffer containing 1% v/v Triton X-100 and protease inhibitor cocktail (Roche, Indianapolis, Ind.), and passed through a 28 gauge needle to ensure the release of Htt inclusions from the nuclei. Whole mouse brains were homogenized in 50 mM Tris-HCl (pH 7.4), 150 mM NaCl, 1% v/v Triton X-100 and complete protease inhibitor cocktail. Brain homogenate was pre-cleared by centrifuging at 7,500 g for 90 s at 4° C. The supernatant was passed through a 28-gauge needle and boiled in SDS sample buffer for 10 min. Fifty μg of total protein was loaded onto 10% w/v SDS gel containing a 4% w/v stacking gel. […]
In general terms: In western blotting, separated proteins are transferred to a membrane and probed.

Regarding `Oc1c(I)cc(Cl)c2cccnc12` [CQ, 5-chloro-7-iodo-8-hydroxy-quinoline], in the assay with R6/2 mice [1], the rotarod performance entry was “scored significantly better”. Also, the body weight entry in the assay with R6/2 mice [2] was “significantly greater than untreated animals”. Moreover, the “fluorescent product of Htt exon1-Q103-egfp” value in the assay on Htt exon1-Q103-egfp [3] is reported as “less fluorescent product”. For the same compound, the “CQ concentration at which dose-dependent inhibition of Htt exon1-Q103-egfp expression begins” value in the assay on Htt exon1-Q103-egfp [4] was determined as 0.5 µM. Moreover, the “inhibition of Htt exon1-Q103-egfp expression” value with Htt exon1-Q103-egfp [4] (2 μM CQ) is 3.2 fold.
